Laboratory results taken from paper PMC8459971, “Evaluation of the hepatotoxicity of the novel GPR40 (FFAR1) agonist CPL207280 in the rat and monkey” (PLoS ONE, 2021).
Where two headings read alike, the source gives them in different places.

Tested on: HepaRG spheroids
Assay: HepaRG 3D spheroids, cell and mitochondrial health markers, 14 days
Conditions: TIMEPOINT 336
[1] = HepaRG spheroid, at the concentration (uM) given
[2] = HepaRG spheroid, plotted value at the concentration given

Experimental: Hepatic spheroids were formed by seeding HepaRG™ cells into round-bottom ultra-low adhesion 96-well spheroid plates (Corning®) in 3D liver media with 0.5% DMSO, 100 U/mL penicillin, and 100 mg/L streptomycin. Cells were incubated at 37°C and 5% CO2 until spheroid formation and then compound-treated. The test compound was diluted in the vehicle, and serial dilutions were made in a 0.5% vehicle in HepaRG™ induction media. […] L-buthionine sulfoximine was used as positive control for GSH content, whereas rotenone was simultaneously used as a positive control for mitochondrial dysfunction and ATP content. At the end of the incubation period, the cells were loaded with the relevant dye for each cell health marker: DNA structure–Hoescht, GSH content–mBCL, ROS formation–DHE, mitochondrial dysfunction–MitoTracker, and cellular ATP content–CellTiter-Glo®, Promega. The plate was then scanned using an automated confocal fluorescent cellular imager, ArrayScan® XTI (Thermo Scientific Cellomics) at 37°C and 5% CO2. Further, the cellular ATP content was measured using CellTiter-Glo® (Promega, USA).

N#CC(C#N)=NNc1cccc(Cl)c1 [carbonyl cyanide 3-chlorophenylhydrazone]
Cellular ATP Mean Plotted Value (CONC 0.04 uM): 1.06
DNA structure Mean Plotted Value (CONC 0.04 uM): 0.942
Glutathione content Mean Plotted Value (CONC 0.04 uM): 0.925
Mitochondrial mass Mean Plotted Value (CONC 0.04 uM): 1.13
Mitochondrial membrane potential Mean Plotted Value (CONC 0.04 uM): 1.05
Oxidative stress Mean Plotted Value (CONC 0.04 uM): 1.02
Spheroid count Mean Plotted Value (CONC 0.04 uM): 1
Spheroid size Mean Plotted Value (CONC 0.04 uM): 1.01
Cellular ATP Mean Plotted Value (CONC 0.1 uM): 1.01
DNA structure Mean Plotted Value (CONC 0.1 uM): 1.05
Glutathione content Mean Plotted Value (CONC 0.1 uM): 0.914
Mitochondrial mass Mean Plotted Value (CONC 0.1 uM): 1.06
Mitochondrial membrane potential Mean Plotted Value (CONC 0.1 uM): 1.15
Oxidative stress Mean Plotted Value (CONC 0.1 uM): 1
Spheroid count Mean Plotted Value (CONC 0.1 uM): 1
Spheroid size Mean Plotted Value (CONC 0.1 uM): 1.04
Cellular ATP Mean Plotted Value (CONC 0.4 uM): 0.966
DNA structure Mean Plotted Value (CONC 0.4 uM): 1.07
Glutathione content Mean Plotted Value (CONC 0.4 uM): 0.993
Mitochondrial mass Mean Plotted Value (CONC 0.4 uM): 0.994
Mitochondrial membrane potential Mean Plotted Value (CONC 0.4 uM): 1.07
Oxidative stress Mean Plotted Value (CONC 0.4 uM): 0.993
Spheroid count Mean Plotted Value (CONC 0.4 uM): 1
Spheroid size Mean Plotted Value (CONC 0.4 uM): 0.969
Cellular ATP Mean Plotted Value (CONC 1 uM): 0.843
DNA structure Mean Plotted Value (CONC 1 uM): 0.905
Glutathione content Mean Plotted Value (CONC 1 uM): 0.819
Mitochondrial mass Mean Plotted Value (CONC 1 uM): 1.11
Mitochondrial membrane potential Mean Plotted Value (CONC 1 uM): 0.995
Oxidative stress Mean Plotted Value (CONC 1 uM): 1.12
Spheroid count Mean Plotted Value (CONC 1 uM): 1
Spheroid size Mean Plotted Value (CONC 1 uM): 0.994
Cellular ATP Mean Plotted Value (CONC 4 uM): 0.0197
DNA structure Mean Plotted Value (CONC 4 uM): 0.726
Glutathione content Mean Plotted Value (CONC 4 uM): 0.176
Mitochondrial mass Mean Plotted Value (CONC 4 uM): 0.851
Mitochondrial membrane potential Mean Plotted Value (CONC 4 uM): 0.876
Oxidative stress Mean Plotted Value (CONC 4 uM): 1.36
Spheroid count Mean Plotted Value (CONC 4 uM): 1
Spheroid size Mean Plotted Value (CONC 4 uM): 0.828
Cellular ATP Mean Plotted Value (CONC 10 uM): -0.000228
DNA structure Mean Plotted Value (CONC 10 uM): 0.0956
Glutathione content Mean Plotted Value (CONC 10 uM): 0.111
Mitochondrial mass Mean Plotted Value (CONC 10 uM): 0.763
Mitochondrial membrane potential Mean Plotted Value (CONC 10 uM): 0.627
Oxidative stress Mean Plotted Value (CONC 10 uM): 1.36
Spheroid count Mean Plotted Value (CONC 10 uM): 1
Spheroid size Mean Plotted Value (CONC 10 uM): 0.751
Cellular ATP Mean Plotted Value (CONC 40 uM): -0.000179
DNA structure Mean Plotted Value (CONC 40 uM): 0.0736
Glutathione content Mean Plotted Value (CONC 40 uM): 0.0824
Mitochondrial mass Mean Plotted Value (CONC 40 uM): 0.515
Mitochondrial membrane potential Mean Plotted Value (CONC 40 uM): 0.236
Oxidative stress Mean Plotted Value (CONC 40 uM): 0.339
Spheroid count Mean Plotted Value (CONC 40 uM): 1
Spheroid size Mean Plotted Value (CONC 40 uM): 0.674
Cellular ATP Mean Plotted Value (CONC 100 uM): 8.57e-5
DNA structure Mean Plotted Value (CONC 100 uM): 0.0501
Glutathione content Mean Plotted Value (CONC 100 uM): 0.0467
Mitochondrial mass Mean Plotted Value (CONC 100 uM): 0.488
Mitochondrial membrane potential Mean Plotted Value (CONC 100 uM): 0.132
Oxidative stress Mean Plotted Value (CONC 100 uM): 0.234
Spheroid count Mean Plotted Value (CONC 100 uM): 1
Spheroid size Mean Plotted Value (CONC 100 uM): 0.58
Cellular ATP MEC (HepaRG spheroid): 0.829 µM
DNA structure MEC (HepaRG spheroid): 3.51 µM
Glutathione content MEC (HepaRG spheroid): 0.876 µM
Mitochondrial mass MEC (HepaRG spheroid): 6.35 µM
Mitochondrial membrane potential MEC (HepaRG spheroid): 5.82 µM
Oxidative stress MEC (HepaRG spheroid): 1.46 µM
Spheroid size MEC (HepaRG spheroid): 2.63 µM
Cellular ATP MR (% @ concentration) [1]: 100%
DNA structure MR (% @ concentration) [1]: 95%
Glutathione content MR (% @ concentration) [1]: 91%
Mitochondrial mass MR (% @ concentration) [1]: 52%
Mitochondrial membrane potential MR (% @ concentration) [1]: 88%
Oxidative stress MR (% @ concentration) [1]: 37%
Spheroid size MR (% @ concentration) [1]: 35%
Cellular ATP MR [2]: -0.000228
DNA structure MR [2]: 0.0501
Glutathione content MR [2]: 0.0824
Mitochondrial mass MR [2]: 0.515
Mitochondrial membrane potential MR [2]: 0.132
Oxidative stress MR [2]: 1.36
Spheroid size MR [2]: 0.674
AC50 (read-out: Cellular ATP AC50, HepaRG spheroid): 1.63 µM
AC50 (read-out: DNA structure AC50, HepaRG spheroid): 5.13 µM
AC50 (read-out: Glutathione content AC50, HepaRG spheroid): 2.19 µM
AC50 (read-out: Mitochondrial mass AC50, HepaRG spheroid): 35.7 µM
AC50 (read-out: Mitochondrial membrane potential AC50, HepaRG spheroid): 12.4 µM
AC50 (read-out: Oxidative stress AC50, HepaRG spheroid): 15.4 µM
AC50 (read-out: Spheroid count AC50, HepaRG spheroid): > 100 µM
AC50 (read-out: Spheroid size AC50, HepaRG spheroid): > 40 µM
